Source: patent US9321756B2, “Azole compounds as PIM inhibitors” (priority 2011, dated 2016)
Read-outs that look alike come from different tables or passages of the source.

What was measured:
[1] = target: full length recombinant Pim-1 (Homo sapiens (Human), UniProt P11309); assay: Pim enzyme assay (HTRF, phosphorylation of biotinylated-BAD (S112) peptide), Pim-1; format: biochemical; conditions: read-out: Pim_1_IC50
[2] = target: full length recombinant Pim-2 (Homo sapiens (Human), UniProt Q9P1W9); assay: Pim enzyme assay (HTRF, phosphorylation of biotinylated-BAD (S112) peptide), Pim-2; format: biochemical; conditions: read-out: Pim2_IC50
Sequence of full length recombinant Pim-2 (Q9P1W9 whole entry): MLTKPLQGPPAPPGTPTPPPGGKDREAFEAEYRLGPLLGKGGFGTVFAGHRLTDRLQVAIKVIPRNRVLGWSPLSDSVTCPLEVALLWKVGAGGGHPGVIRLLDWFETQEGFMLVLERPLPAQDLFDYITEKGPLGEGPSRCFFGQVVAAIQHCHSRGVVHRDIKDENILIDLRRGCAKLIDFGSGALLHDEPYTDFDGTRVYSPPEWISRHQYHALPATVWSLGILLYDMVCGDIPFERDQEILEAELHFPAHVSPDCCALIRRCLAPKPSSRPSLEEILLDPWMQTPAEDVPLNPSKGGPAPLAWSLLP

[3] = target: full length recombinant Pim-3 (Homo sapiens (Human), UniProt Q86V86); assay: Pim enzyme assay (HTRF, phosphorylation of biotinylated-BAD (S112) peptide), Pim-3; format: biochemical; conditions: read-out: Pim3 IC50
Summary of the method: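 Full-length recombinant Pim-3 phosphorylated biotinylated BAD (S112) peptide in 60 mM Hepes pH 7.0, 0.05% BSA, 2 mM DTT for 1 h 30 min at 22 °C. After EDTA stop, HTRF was read with Eu anti-phospho-BAD and streptavidin-APC. IC50 came from 4-parameter logistic fit of percent-of-control values.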

[4] = system: Pim-1 stably transfected U2OS human osteogenic sarcoma line; assay: Pim cell assay U2OS (phospho-BAD normalized against total BAD), Pim-1 transfected; format: cell-based; conditions: Homo sapiens, U2OS
[5] = system: Pim-2 stably transfected U2OS human osteogenic sarcoma line; assay: Pim cell assay U2OS (phospho-BAD normalized against total BAD), Pim-2 transfected; format: cell-based; conditions: Homo sapiens, read-out: U2OS Pim2_Cell_IC50
Method: The cell lines used in the assay were generated by the stable transfection of either Pim-1 or Pim-2 into the U2OS human osteogenic sarcoma line. The assay for determination of the Pim activity in the engineered U2OS cell lines measures levels of phospho-BAD normalized against total BAD protein levels. It was conducted as follows:
The adherent cells were dissociated from the flasks using non-enzymatic cell dissociation solution (Sigma #C5914). […] The cells were then incubated overnight at 37° C., 5% CO2.
In addition to the 10-point dosing curve of the test compound, DMSO alone was run as the high control.
This dilution in DMSO was then diluted again into cell growth medium. Aliquots (12 μL) of the compound diluted in growth medium were then transferred to the appropriate wells of the 96-well plates containing cells to a final DMSO concentration of 0.3%. The cell plates were then incubated with compound for 29 min at 37° C., 5% CO2.
The cell plates containing lysis buffer were then immediately stored at −70° C.
These prepared lysates were then assayed for phospho and total BAD according to the manufacturer's protocols (Meso Scale Diagnostics, Cat#K15103C-3 & #K15103D-3). The plates were read on the MSD Sector Imager 6000, and results were calculated according to the assay protocols ((% Phosphoprotein=((2×Phospho signal)/(Phospho signal+Total signal))×100)).

[6] = read-out: U2OS Pim1_Cell_IC50, U2OS cells, Pim-1 transfected

Sequence of full length recombinant Pim-1 (P11309 whole entry): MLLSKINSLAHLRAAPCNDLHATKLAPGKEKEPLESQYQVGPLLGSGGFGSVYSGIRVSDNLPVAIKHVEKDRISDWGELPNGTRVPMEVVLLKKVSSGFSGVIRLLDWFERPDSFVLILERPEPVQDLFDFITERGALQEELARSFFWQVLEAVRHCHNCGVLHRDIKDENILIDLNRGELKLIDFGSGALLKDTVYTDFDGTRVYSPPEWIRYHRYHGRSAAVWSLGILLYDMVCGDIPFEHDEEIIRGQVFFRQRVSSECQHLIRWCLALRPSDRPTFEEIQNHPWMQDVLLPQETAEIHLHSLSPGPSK

IC50 ([1]; Pim-1 enzyme assay) [µM] | IC50 ([2]; Pim-2 enzyme assay) [µM] | IC50 ([3]; Pim-3 enzyme assay) [µM] | SMILES | IC50 [1] [µM] | IC50 [2] [µM] | IC50 [3] [µM] | IC50 [4, 6] [µM] | IC50 ([5]; U2OS) [µM] | IC50 ([4]; read-out: U2OS Pim1_Cell_IC50) [µM] | IC50 ([5]; U2OS cells, Pim-2 transfected) [µM]
0.0197 | 0.0278 | 0.0078 | CCOc1cncc(-c2c[nH]c3ccc(-c4nnc(N)s4)cc23)n1 [Example 19, 5-(3-(6-ethoxypyrazin-2-yl)-1H-indol-5-yl)-1,3,4-thiadiazol-2-amine] |  |  |  | 0.205 |  |  | 2.75
0.0407 | 0.157 | 0.027 | c1cc(-c2c[nH]c3ccc(-c4nncs4)cc23)nc(N2CCOCC2)c1 [Example 28, 4-(6-(5-(1,3,4-thiadiazol-2-yl)-1H-indol-3-yl)pyridin-2-yl)morpholine] |  |  |  |  |  | 1.07 | > 31.6
0.00382 | 0.00687 | 0.00254 | CN1CCN(c2cccc(-c3c[nH]c4ccc(-c5nnc(N)o5)cc34)n2)CC1 [Example 75, 5-(3-(6-(4-methyl-1-piperazinyl)-2-pyridinyl)-1H-indol-5-yl)-1,3,4-oxadiazol-2-amine] |  |  |  |  |  | 0.173 | 2.35
0.00559 | 0.00518 | 0.00247 | CC(C)Oc1cncc(-c2c[nH]c3ccc(-c4nnc(N)o4)cc23)n1 [Example 76, 5-(3-(6-(1-methylethoxy)-2-pyrazinyl)-1H-indol-5-yl)-1,3,4-oxadiazol-2-amine] |  |  |  |  |  | 0.0358 | 0.636
0.0119 | 0.0137 | 0.00413 | Nc1nnc(-c2ccc3[nH]cc(-c4cccc(-n5cccn5)n4)c3c2)o1 [Example 77, 5-(3-(6-(1H-pyrazol-1-yl)-2-pyridinyl)-1H-indol-5-yl)-1,3,4-oxadiazol-2-amine] |  |  |  | 0.112 |  |  | 1.89
0.047 | 0.078 | 0.0671 | CC(C)Cn1cc(-c2c[nH]c3ccc(-c4nnc(N)o4)cc23)cn1 [Example 80, 5-(3-(1-(2-methylpropyl)-1H-pyrazol-4-yl)-1H-indol-5-yl)-1,3,4-oxadiazol-2-amine] |  |  |  |  |  | 0.142 | 3.66
0.0593 | 0.193 | 0.0362 | CC(C)Oc1ccc(F)c(-c2c[nH]c3ccc(-c4nnc(N)o4)cc23)c1 [Example 83, 5-(3-(2-fluoro-5-(1-methylethoxy)phenyl)-1H-indol-5-yl)-1,3,4-oxadiazol-2-amine] |  |  |  | 0.725 |  |  | 18.5
0.00415 | 0.00546 | 0.00111 | CC(C)Oc1cccc(-c2c[nH]c3ccc(-c4nnc(N)o4)cc23)n1 [Example 87, 5-(3-(6-(1-methylethoxy)-2-pyridinyl)-1H-indol-5-yl)-1,3,4-oxadiazol-2-amine] |  |  |  |  |  | 0.0451 | 0.823
0.00192 | 0.00643 | 0.0016 | Nc1nnc(-c2ccc3[nH]cc(-c4cncc(N5CCC(F)(F)C5)n4)c3c2)o1 [Example 88, 5-(3-(6-(3,3-difluoro-1-pyrrolidinyl)-2-pyrazinyl)-1H-indol-5-yl)-1,3,4-oxadiazol-2-amine] |  |  |  |  |  | 0.0407 | 0.464
0.00211 | 0.00477 | 0.00183 | Nc1nnc(-c2ccc3[nH]cc(-c4cncc(N5CCCCC5)n4)c3c2)o1 [Example 89, 5-(3-(6-(1-piperidinyl)-2-pyrazinyl)-1H-indol-5-yl)-1,3,4-oxadiazol-2-amine] |  |  |  | 0.0599 |  |  | 0.692
0.00891 | 0.0134 | 0.00645 | Nc1nnc(-c2ccc3[nH]cc(-c4cncc(N5CCOCC5)n4)c3c2)o1 [Example 90, 5-(3-(6-(4-morpholinyl)-2-pyrazinyl)-1H-indol-5-yl)-1,3,4-oxadiazol-2-amine] |  |  |  |  |  | 0.374 | 5.42

More lines, now with the values behind:

SMILES | IC50 ([1]; Pim-1 enzyme assay) [µM] | IC50 ([2]; Pim-2 enzyme assay) [µM] | IC50 ([3]; Pim-3 enzyme assay) [µM] | IC50 [1] [µM] | IC50 [2] [µM] | IC50 [3] [µM] | IC50 [4, 6] [µM] | IC50 ([5]; U2OS) [µM] | IC50 ([4]; read-out: U2OS Pim1_Cell_IC50) [µM] | IC50 ([5]; U2OS cells, Pim-2 transfected) [µM]
CN1CCN(c2cccc(-c3c[nH]c4ccc(-c5nnc(N)s5)cc34)n2)CC1 [Example 13, 5-(3-(6-(4-methylpiperazin-1-yl)pyridin-2-yl)-1H-indol-5-yl)-1,3,4-thiadiazol-2-amine] |  |  |  | 0.00202 | 0.0109 | 0.000625 | 0.198 | 3.01 |  | 
Nc1nnc(-c2ccc3[nH]cc(-c4cncc(NC5CCCC5)n4)c3c2)s1 [Example 17, 5-(3-(6-(cyclopentylamino)pyrazin-2-yl)-1H-indol-5-yl)-1,3,4-thiadiazol-2-amine 2,2,2-trifluoroacetate] |  |  |  | 0.0015 | 0.00592 | 0.000763 |  | 1.22 | 0.0566 | 
CN1CCN(c2cncc(-c3c[nH]c4ccc(-c5nnc(N)s5)cc34)n2)CC1=O [Example 18, 4-(6-(5-(5-amino-1,3,4-thiadiazol-2-yl)-1H-indol-3-yl)pyrazin-2-yl)-1-methylpiperazin-2-one] | 0.0158 | 0.0892 | 0.00741 |  |  |  |  |  | > 31.6 | > 31.6
Nc1nnc(-c2ccc3[nH]cc(-c4cccc(-c5ccc(Cl)cc5)n4)c3c2)s1 [Example 31, 5-(3-(6-(4-chlorophenyl)pyridin-2-yl)-1H-indol-5-yl)-1,3,4-thiadiazol-2-amine] |  |  |  | 0.0374 | 0.0755 | 0.0136 | 1.09 |  |  | 28.3
CC(C)Oc1cccc(-c2c[nH]c3ccc(-c4nnc(N5CC[C@@H](N)C5)s4)cc23)n1 [Example 33, (R)-1-(5-(3-(6-Isopropoxypyridin-2-yl)-1H-indol-5-yl)-1,3,4-thiadiazol-2-yl)pyrrolidin-3-amine 2,2,2-trifluoroacetate] | 0.00884 |  |  |  | 0.0167 | 0.00132 | 0.328 | 19.5 |  | 
CC(C)Oc1cccc(-c2c[nH]c3ccc(-c4nnc(N5CC[C@H](N)C5)s4)cc23)n1 [Example 34, (S)-1-(5-(3-(6-Isopropoxypyridin-2-yl)-1H-indol-5-yl)-1,3,4-thiadiazol-2-yl)pyrrolidin-3-amine 2,2,2-trifluoroacetate] | 0.0105 |  |  |  | 0.0248 | 0.00151 | 0.28 | > 31.6 |  | 
Cc1nnc(-c2ccc3[nH]cc(-c4cccc(OC(C)C)n4)c3c2)o1 [Example 42, 2-(3-(6-isopropoxypyridin-2-yl)-1H-indol-5-yl)-5-methyl-1,3,4-oxadiazole] | 0.0212 | 0.0386 | 0.01 |  |  |  |  |  | 0.273 | 15.6
CC(C)Nc1nnc(-c2ccc3[nH]cc(-c4cncc(C5CC5)n4)c3c2)o1 [Example 46, 5-(3-(6-cyclopropylpyrazin-2-yl)-1H-indol-5-yl)-N-isopropyl-1,3,4-oxadiazol-2-amine] | 0.00139 | 0.00425 | 0.000498 |  |  |  |  |  | 0.0321 | 0.827
c1cc2[nH]cc(-c3cncc(C4CC4)n3)c2cc1-c1nnc(NC2CC2)o1 [Example 49, N-cyclopropyl-5-(3-(6-cyclopropylpyrazin-2-yl)-1H-indol-5-yl)-1,3,4-oxadiazol-2-amine] | 0.00343 | 0.00764 | 0.00182 |  |  |  |  |  | 0.0834 | 2.68
Nc1nnc(-c2ccc3[nH]cc(-c4cccc(F)c4F)c3c2)o1 [Example 78, 5-(3-(2,3-difluorophenyl)-1H-indol-5-yl)-1,3,4-oxadiazol-2-amine] | 0.103 | 0.164 | 0.0543 |  |  |  |  |  | 1.11 | 18.7
